Laboratory results as given in patent US20230143604A1, “QW DOSING OF GIP RECEPTOR AGONIST PEPTIDE COMPOUNDS AND USES THEREOF” (TAKEDA PHARMACEUTICAL COMPANY LIMITED, priority 2020, published 2023).
Starred links: 1 amine or outer side, 2 acyl side, 3 side chain; linkers in the order of their positions; H or OH if unused. Non-standard residues stand in square brackets, D forms with d. Residues, ends and D or L forms follow the SMILES beside them. Groups on a side chain read outwards from the residue. *: point of attachment. C18 diacid = O=C(O)CCCCCCCCCCCCCCCCC(=O)*; C17 diacid = O=C(O)CCCCCCCCCCCCCCCC(=O)*; γGlu = O=C(O)[C@H](CCC(=O)[*:2])N[*:1]; NMeY = CN[C@@H](Cc1ccc(O)cc1)C(=O)O; AEEA = NCCOCCOCC(=O)O; Aib = CC(C)(N)C(=O)O

Assay: Solubility in phosphate buffer pH 7.4
Protocol: Solubility of the GIPR peptides may be determined by dissolution in a phosphate buffer followed by quantitation using liquid chromatography, for example, High Performance Liquid Chromatogry (HPLC). An illustrative method is provided. For determination of the solubility of the GIPr agonist peptides, 3 mg of peptides are weighted out in a small glass vial. 100 μL of 200 mM Phosphate buffer pH 7.4 are added and the vial is sonicated/votexed as necessary for a maximum of 1 min. […] If insoluble material is observed in the tube the addition of 100 μL of buffer and mixing is repeated until complete dissolution.
3 mg of peptides are weighted out in a small glass vial. 100 uL of 200 mM Phosphate buffer pH 7.4 are added and the vial is sonicated/votexed as necessary for a maximum of 1 min. […] If insoluble material is observed in the tube the addition of 100 uL of buffer and mixing is repeated until complete dissolution.

[1] = pH 7.4, aqueous buffer, pH 7.4 Phosphate Buffer - Solubility, 200 mM Phosphate buffer pH 7.4
[2] = pH 7.4, solubility in phosphate buffer at pH 7.4, 200 mM phosphate buffer pH 7.4

Row | Compound | solubility [1] | solubility [2]
1 | CC[C@H](C)[C@H](NC(=O)[C@H](CO)NC(=O)[C@H](Cc1ccc(O)cc1)NC(=O)[C@H](CC(=O)O)NC(=O)[C@H](CO)NC(=O)[C@@H](NC(=O)[C@H](Cc1ccccc1)NC(=O)[C@@H](NC(=O)CNC(=O)[C@H](CCC(=O)O)NC(=O)C(C)(C)NC(=O)[C@H](Cc1ccc(O)cc1)NC)[C@@H](C)O)[C@@H](C)CC)C(=O)N[C@@H](C)C(=O)N[C@@H](CC(C)C)C(=O)N[C@@H](CC(=O)O)C(=O)N[C@@H](CCCNC(=N)N)C(=O)N[C@@H](CCCCNC(=O)COCCOCCNC(=O)COCCOCCNC(=O)CC[C@H](NC(=O)CCCCCCCCCCCCCCCCC(=O)O)C(=O)O)C(=O)N[C@@H](C)C(=O)N[C@@H](CCC(N)=O)C(=O)NC(C)(C)C(=O)N[C@@H](CC(=O)O)C(=O)N[C@@H](Cc1ccccc1)C(=O)N[C@H](C(=O)N[C@@H](CC(N)=O)C(=O)N[C@@H](Cc1c[nH]c2ccccc12)C(=O)N[C@@H](CC(C)C)C(=O)N[C@@H](CC(C)C)C(=O)N[C@@H](C)C(=O)N[C@@H](CCC(N)=O)C(=O)N[C@@H](CCCNC(=N)N)C(=O)N1CCC[C@H]1C(=O)N[C@@H](CO)C(=O)N[C@@H](CO)C(=O)NCC(=O)N[C@@H](C)C(=O)N1CCC[C@H]1C(=O)N1CCC[C@H]1C(=O)N1CCC[C@H]1C(=O)N[C@@H](CO)C(N)=O)C(C)C [Compound 23] (H-[NMeY][Aib]EGTFISDYSIALDRK([AEEA-AEEA-γGlu-C18 diacid])AQ[Aib]DFVNWLLAQRPSSGAPPPS-NH2) | ≥ 30 mg/mL | ≥ 15 mg/mL
2 | CC[C@H](C)[C@H](NC(=O)[C@H](CO)NC(=O)[C@H](Cc1ccc(O)cc1)NC(=O)[C@H](CC(=O)O)NC(=O)[C@H](CO)NC(=O)[C@@H](NC(=O)[C@H](Cc1ccccc1)NC(=O)[C@@H](NC(=O)CNC(=O)[C@H](CCC(=O)O)NC(=O)C(C)(C)NC(=O)[C@H](Cc1ccc(O)cc1)NC)[C@@H](C)O)[C@@H](C)CC)C(=O)N[C@@H](C)C(=O)N[C@@H](CCCCNC(=O)CNC(=O)CNC(=O)CNC(=O)CNC(=O)CNC(=O)CC[C@H](NC(=O)CCCCCCCCCCCCCCCCC(=O)O)C(=O)O)C(=O)N[C@@H](CC(=O)O)C(=O)N[C@@H](CCCNC(=N)N)C(=O)NC(C)(C)C(=O)N[C@@H](C)C(=O)N[C@@H](CCC(N)=O)C(=O)NC(C)(C)C(=O)N[C@@H](CC(=O)O)C(=O)N[C@@H](Cc1ccccc1)C(=O)N[C@H](C(=O)N[C@@H](CC(N)=O)C(=O)N[C@@H](Cc1c[nH]c2ccccc12)C(=O)N[C@@H](CC(C)C)C(=O)N[C@@H](CC(C)C)C(=O)N[C@@H](C)C(=O)N[C@@H](CCC(N)=O)C(=O)N[C@@H](CCCNC(=N)N)C(=O)N1CCC[C@H]1C(=O)N[C@@H](CO)C(=O)N[C@@H](CO)C(=O)NCC(=O)N[C@@H](C)C(=O)N1CCC[C@H]1C(=O)N1CCC[C@H]1C(=O)N1CCC[C@H]1C(=O)N[C@@H](CO)C(N)=O)C(C)C [Compound 24] | ≥ 30 mg/mL | ≥ 15 mg/mL
3 | CC[C@H](C)[C@H](NC(=O)[C@H](CO)NC(=O)[C@H](Cc1ccc(O)cc1)NC(=O)[C@H](CC(=O)O)NC(=O)[C@H](CO)NC(=O)[C@@H](NC(=O)[C@H](Cc1ccccc1)NC(=O)[C@@H](NC(=O)CNC(=O)[C@H](CCC(=O)O)NC(=O)C(C)(C)NC(=O)[C@H](Cc1ccc(O)cc1)NC)[C@@H](C)O)[C@@H](C)CC)C(=O)N[C@@H](C)C(=O)N[C@@H](CC(C)C)C(=O)N[C@@H](CC(=O)O)C(=O)N[C@@H](CCCNC(=N)N)C(=O)NC(C)(C)C(=O)N[C@@H](CCCCNC(=O)COCCOCCNC(=O)COCCOCCNC(=O)CC[C@H](NC(=O)CCCCCCCCCCCCCCCC(=O)O)C(=O)O)C(=O)N[C@@H](CCC(N)=O)C(=O)NC(C)(C)C(=O)N[C@@H](CC(=O)O)C(=O)N[C@@H](Cc1ccccc1)C(=O)N[C@H](C(=O)N[C@@H](CC(N)=O)C(=O)N[C@@H](Cc1c[nH]c2ccccc12)C(=O)N[C@@H](CC(C)C)C(=O)N[C@@H](CC(C)C)C(=O)N[C@@H](C)C(=O)N[C@@H](CCC(N)=O)C(=O)N[C@@H](CCCNC(=N)N)C(=O)N1CCC[C@H]1C(=O)N[C@@H](CO)C(=O)N[C@@H](CO)C(=O)NCC(=O)N[C@@H](C)C(=O)N1CCC[C@H]1C(=O)N1CCC[C@H]1C(=O)N1CCC[C@H]1C(=O)N[C@@H](CO)C(N)=O)C(C)C [Compound 25] (H-[NMeY][Aib]EGTFISDYSIALDR[Aib]K([AEEA-AEEA-γGlu-C17 diacid])Q[Aib]DFVNWLLAQRPSSGAPPPS-NH2) | ≥ 30 mg/mL | ≥ 15 mg/mL
4 | CC[C@H](C)[C@H](NC(=O)[C@H](Cc1ccccc1)NC(=O)[C@@H](NC(=O)CNC(=O)[C@H](CCC(=O)O)NC(=O)C(C)(C)NC(=O)[C@H](Cc1ccc(O)cc1)NC)[C@@H](C)O)C(=O)N[C@@H](CO)C(=O)N[C@@H](CC(=O)O)C(=O)N[C@@H](Cc1ccc(O)cc1)C(=O)N[C@@H](CO)C(=O)N[C@H](C(=O)NC(C)(C)C(=O)N[C@@H](CC(C)C)C(=O)N[C@@H](CC(=O)O)C(=O)N[C@@H](CCCNC(=N)N)C(=O)N[C@@H](CCCCNC(=O)COCCOCCNC(=O)COCCOCCNC(=O)CC[C@H](NC(=O)CC[C@H](NC(=O)CCCCCCCCCCCCCCCCC(=O)O)C(=O)O)C(=O)O)C(=O)N[C@@H](C)C(=O)N[C@@H](CCC(N)=O)C(=O)NC(C)(C)C(=O)N[C@@H](CC(N)=O)C(=O)N[C@@H](Cc1ccccc1)C(=O)N[C@H](C(=O)N[C@@H](CC(N)=O)C(=O)N[C@@H](Cc1c[nH]c2ccccc12)C(=O)N[C@@H](CC(C)C)C(=O)N[C@@H](CC(C)C)C(=O)N[C@@H](C)C(=O)N[C@@H](CCC(N)=O)C(=O)N[C@@H](CCCNC(=N)N)C(=O)N1CCC[C@H]1C(=O)N[C@@H](CO)C(=O)N[C@@H](CO)C(=O)NCC(=O)N[C@@H](C)C(=O)N1CCC[C@H]1C(=O)N1CCC[C@H]1C(=O)N1CCC[C@H]1C(=O)N[C@@H](CO)C(N)=O)C(C)C)[C@@H](C)CC [Compound 26] (H-[NMeY][Aib]EGTFISDYSI[Aib]LDRK([AEEA-AEEA-γGlu-γGlu-C18 diacid])AQ[Aib]NFVNWLLAQRPSSGAPPPS-NH2) | ≥ 30 mg/mL | ≥ 15 mg/mL
5 | CC[C@H](C)[C@H](NC(=O)[C@H](Cc1ccccc1)NC(=O)[C@@H](NC(=O)CNC(=O)[C@H](CCC(=O)O)NC(=O)C(C)(C)NC(=O)[C@H](Cc1ccc(O)cc1)NC)[C@@H](C)O)C(=O)N[C@@H](CO)C(=O)N[C@@H](CC(=O)O)C(=O)N[C@@H](Cc1ccc(O)cc1)C(=O)N[C@@H](CO)C(=O)N[C@H](C(=O)NC(C)(C)C(=O)N[C@@H](CCCCNC(=O)COCCOCCNC(=O)COCCOCCNC(=O)CC[C@H](NC(=O)CC[C@H](NC(=O)CCCCCCCCCCCCCCCCC(=O)O)C(=O)O)C(=O)O)C(=O)N[C@@H](CC(=O)O)C(=O)N[C@@H](CCCNC(=N)N)C(=O)NC(C)(C)C(=O)N[C@@H](C)C(=O)N[C@@H](CCC(N)=O)C(=O)NC(C)(C)C(=O)N[C@@H](CC(N)=O)C(=O)N[C@@H](Cc1ccccc1)C(=O)N[C@H](C(=O)N[C@@H](CC(N)=O)C(=O)N[C@@H](Cc1c[nH]c2ccccc12)C(=O)N[C@@H](CC(C)C)C(=O)N[C@@H](CC(C)C)C(=O)N[C@@H](C)C(=O)N[C@@H](CCC(N)=O)C(=O)N[C@@H](CCCNC(=N)N)C(=O)N1CCC[C@H]1C(=O)N[C@@H](CO)C(=O)N[C@@H](CO)C(=O)NCC(=O)N[C@@H](C)C(=O)N1CCC[C@H]1C(=O)N1CCC[C@H]1C(=O)N1CCC[C@H]1C(=O)N[C@@H](CO)C(N)=O)C(C)C)[C@@H](C)CC [Compound 28] (H-[NMeY][Aib]EGTFISDYSI[Aib]K([AEEA-AEEA-γGlu-γGlu-C18 diacid])DR[Aib]AQ[Aib]NFVNWLLAQRPSSGAPPPS-NH2) | ≥ 30 mg/mL | ≥ 15 mg/mL
